From patent US20220323445A1, “REDUCING IMMUNOGENICITY TO PEGLOTICASE” (Horizon Therapeutics Ireland DAC, priority 2020, published 2022)

Test system: serum uric acid (sUA)
Experiment: Serum uric acid (sUA) levels and sUA responders, open-label study of pegloticase with MTX (NCT03635957)
Type: in vivo, human
Details: mITT
Experimental: The primary objective is to estimate the response rate during Month 6 (Weeks 20, 22, and 24), as measured by the sustained normalization of serum uric acid (SUA) to <6 mg/dL for at least 80% of the time during Month 6 in subjects receiving KXX with MTX.
The primary efficacy outcome endpoint is the sustained normalization of SUA to <6 mg/dL for at least 80% of the time during month 6 (weeks 20, 22, and 24) in subjects receiving KXX with MTX. This is slightly below the urate solubility threshold and this threshold has been the accepted standard for nearly all modern gout trials. Participants who achieve this endpoint were classified as “responders.” Serum uric acid (SUA) responders may also be defined as participants achieving and maintaining SUA <6 mg/dL for at least 80% of the time during Month 6 (Weeks 20, 22, and 24).
Blood samples may be collected prior to each pegloticase infusion for measurement of SUA levels using the Beckman Coulter AU System Uric Acid procedure. Participants were declared “non-responders” if there were SUA measures >6 mg/dL at 2 consecutive study visits beginning with the week 2 visit. […] If the SUA goal is not maintained before or at the 12-week mark, it was assumed that the participant had developed clinically relevant anti-pegloticase antibody and they received no further infusions. This assumption and subsequent discontinuation of pegloticase was consistent with the protocol of large phase III randomized controlled trials and the product label. A formal stopping rule was 2 occasions of SUA levels of greater than 6 mg/dL.
Clinical Chemistry—Blood samples were collected prior to each pegloticase infusion for measurement of SUA levels (primary efficacy parameter) using the Beckman Coulter AU System Uric Acid procedure. In this procedure uric acid is converted to hydrogen peroxide. Hydrogen peroxide reacts with reagent to produce a chromophore which is read bichromatically at 660/800 nm. The amount of dye formed is proportional to the uric acid concentration in the sample.
Serum samples for measurement of SUA levels were collected at the Screening Visit, the Week −4 Visit (prior to the first dose of MTX), and the Week −2 Visit during the MTX Run-in Period; within 48 hours prior to each pegloticase infusion and after the end of each pegloticase infusion prior to discharge from the site during the Pegloticase+IMM Period; at the non-infusion Week 52/End of Study/Early Termination Visits and at the Post Treatment 3 and 6 Month Follow-up Visits. Additional serum samples for SUA levels were collected at optional non-infusion (Frequent Sampling) Visits at Weeks 1 and 7. […] Subjects with SUA level >6 mg/dL at 2 consecutive visits beginning at Week 2 visit discontinued treatment, completed the End of Pegloticase Infusion Visit procedures within 2 weeks and continued the subject visits according to the protocol (without treatment).
Efficacy analyses were performed using the modified intention-to-treat (mITT) population, defined as all enrolled subjects who received ≥1 dose of pegloticase. The proportion of Month 6 responders was summarized, along with a 95% confidence interval for the proportion. The proportion of Month 3 and overall (Months 3 and 6 combined) responders was analyzed similarly.
A subject was declared a non-responder if the subject had SUA level >6 mg/dL at 2 consecutive study visits beginning with the Week 2 Visit. In addition, a subject who withdraws from study treatment for any reason after the first dose of pegloticase in the KXX+MTX Period and prior to Month 6 (for the primary endpoint) or Month 3 (for the secondary endpoint) was considered a non-responder if SUA values were not collected at the planned time points.
Patients were administered oral MTX (15 mg/week) and folate (1 mg/day) 4 weeks prior to the first pegloticase infusion (Day 1) and throughout the pegloticase treatment period. […]

[1] = Day 1 - Pre-Infusion (after MTX Run-in)

## CN(Cc1cnc2nc(N)nc(N)c2n1)c1ccc(C(=O)N[C@@H](CCC(=O)O)C(=O)O)cc1 [MTX, methotrexate]
[1]
  sUA Change from Methotrexate Baseline, Mean (SD): 0.25 (1.283) mg/dL
  sUA Change from Methotrexate Baseline, Median: -0.25 mg/dL
  sUA Observed, Median: 9.00 mg/dL
  sUA ≤ 6 mg/dL, n (%): 1 (7.1%) n (%)
Week -2 (MTX Run-in Period)
  sUA Change from Methotrexate Baseline, Mean (SD): 0.54 (0.839) mg/dL
  sUA Change from Methotrexate Baseline, Median: 0.50 mg/dL
  sUA Observed, Median: 9.30 mg/dL
  sUA ≤ 6 mg/dL, n (%): 1 (7.1%) n (%)
